Experimental findings from article PMC10530652 (BME Frontiers, 2021) are described below.

Series [1] deals with MMP activity in ex vivo ventilated ovine lung. Put plainly: Ex vivo ovine lung model instilled with OPA supernatant, FCFM imaging. Particulars: marimastat 100 μM with OPA supernatant, 5 μM FIB One. The method, then: Ovine pulmonary adenocarcinoma (OPA) tissue was homogenised using a drill homogeniser, followed by lysis in cell lysis buffer. The supernatant was collected following centrifugation at 12,000 rpm for 20 min. The samples were adjusted to 1 mg mL^-1 total protein (determined by a Pierce BCA Total Protein Assay Kit (Thermo Fisher Scientific)). Zymography (as described above) was performed to confirm MMP activity across multiple OPA samples. Recombinant MMP-9 (2 nM) and recombinant pro-MMP-9 (0.5 nM) were included in the assay as positive controls. […] Following >30 min, the segments were bronchoscopically identified and microdosed with 5 μM FIB One in 1 mL. FCFM imaging was undertaken pre- and postinstillation (Cellvizio®, Mauna Kea Technologies). This was performed by passing a FCFM fibre into the disparate bronchopulmonary segments (up to 5 passes per bronchopulmonary segment to capture a regional representation of fluorescence), recording images at 12 frames per second and imaging for up to 5 minutes. Videos were analysed as described above. Each experimental set was normalised to the control segment (segment with 1 mL 0.9% NaCl instilled) which represents intrinsic autofluorescence.

In another series the target is T1, MMP-9 (Homo sapiens, UniProt P14780).
T1 construct: recombinant MMPs (Enzo Life Sciences) (active domains of MMP-1, MMP-2, MMP-3, MMP-7, MMP-8, MMP-9, MMP-10, MMP-11, MMP-12, and MMP-13); purchased Enzo Life Sciences
T1 sequence (P14780 107-444 limits assumed): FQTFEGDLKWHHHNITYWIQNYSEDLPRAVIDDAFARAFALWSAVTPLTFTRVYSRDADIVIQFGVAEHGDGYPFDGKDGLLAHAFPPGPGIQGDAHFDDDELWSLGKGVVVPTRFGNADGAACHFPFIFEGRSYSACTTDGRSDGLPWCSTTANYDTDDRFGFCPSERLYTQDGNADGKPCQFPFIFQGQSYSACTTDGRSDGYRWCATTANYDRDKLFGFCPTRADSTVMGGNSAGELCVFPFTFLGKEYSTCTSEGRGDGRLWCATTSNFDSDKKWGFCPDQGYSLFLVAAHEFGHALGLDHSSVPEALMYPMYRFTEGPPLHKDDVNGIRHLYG
Put plainly: In vitro enzymatic validation of FIB One with recombinant MMP-9 (plate reader). Type of series: biochemical. Particulars: marimastat 20 μM, enzyme pre-incubated 30 min at 37°C, FIB One 1 μM, MMP 30 nM. The procedure:
(§1) To determine the enzymatic specificity of FIB One, the probe was incubated at a concentration of 1 μM (unless otherwise stated) with the recombinant MMPs (Enzo Life Sciences) (active domains of MMP-1, MMP-2, MMP-3, MMP-7, MMP-8, MMP-9, MMP-10, MMP-11, MMP-12, and MMP-13, all at 30 nM), thrombin (Sigma Aldrich) (5 U/mL), factor Xa (Sigma Aldrich) (500 nM), plasmin (Sigma Aldrich) (30 nM), and human neutrophil elastase (30 nM). Where appropriate, enzymes were incubated with specific inhibitors for 30 min at 37°C prior to addition of FIB One. […] Enzyme free reactions served as a control. Enzymatic reactions were performed in MMP buffer (10 mM CaCl2, 6.1 g Tris-HCl, 8.6 g NaCl per litre, pH 7.5) in a final volume of 20 μL. Reactions were performed in duplicate in 384-well plates (Life Technologies) with optically clear plate seals (Thermo Scientific) and repeated thrice (independently). Fluorescence signal was measured for up to 60 min, ex/em 485/528 nm using microplate reader (BioTek Synergy H1 multimode reader). Data were normalised to buffer alone and are presented as fold-change in signal (relative fluorescent units, RFU) compared to enzyme-free controls. Data were plotted using Prism 7 (GraphPad Software Inc., La Jolla, CA, USA).

Series [2] deals with primary human lung tissue. Put plainly: Ex vivo fibre-based (FCFM) imaging of human lung tissue with FIB One. Particulars: marimastat 100 μM, FIB One 1 μM, 10 min, n=9, P=0.0215. The method, then:
Human lung tissue samples (lung tumour and noncancerous adjacent tissue) were obtained following surgical resection and stored at -80° C until use. Processing for multiwell plate reader assay or zymography analysis was conducted as follows: 1 mm×4 mm sections were homogenised in 400 μL MMP buffer in Precellys 2.8 mm ceramic bead tubes (VWR) using a Pecellys 24 homogeniser. Homogenised tissue was adjusted to 4 mg mL^-1 protein (determined by a Pierce BCA Total Protein Assay Kit (Thermo Fisher Scientific), following the manufacturer’s instructions). Multiwell plate reader assays were performed as previously described, replacing the MMP buffer and MMP enzymes for the homogenised and protein-adjusted lung tissue.
For ex vivo imaging, human lung tissue was sliced into 1 mm×4 mm sections and placed in the wells of a 96-well plate with 100 μL of MMP buffer and 30 nM MMP-13. […] The fluorescence for each sample was calculated by determining the average fluorescence per frame for each time point. […] Five independent patient specimens were collected and analysed. RFUs collected from off-target frames (showing motion artefact or absence of any fluorescence) were omitted during analysis.

The next series has as its target T2, MMP-2 (Homo sapiens, UniProt P08253).
T2 construct: recombinant MMPs (Enzo Life Sciences) (active domains of MMP-1, MMP-2, MMP-3, MMP-7, MMP-8, MMP-9, MMP-10, MMP-11, MMP-12, and MMP-13); purchased Enzo Life Sciences
Put plainly: In vitro enzymatic validation of FIB One with recombinant MMP-2 (plate reader). The note with it: marimastat 20 μM, enzyme pre-incubated 30 min at 37°C, FIB One 1 μM, MMP 30 nM. It is filed as biochemical. The method, then: as §1

The test system of series [3] is stimulated human neutrophils. Put plainly: FIB One cleavage in supernatant from stimulated neutrophils. Type of series: cell-based. The note with it: coincubation with marimastat, FIB One 1 μM, 10 min. The method, then: Neutrophils were isolated from the blood of healthy human volunteers as previously described. The number of retrieved neutrophils was determined with NucleoCounter NC-1000 (Chemo Metec). Neutrophils were resuspended at a concentration of 20×10^6 mL^-1 in 0.9% NaCl with 0.9 mM CaCl2. Cells were incubated for 30 min at 37°C. Cells to be stimulated were subsequently activated with 5 μM calcium ionophore A23187 (Tocris Bioscience) for 30 min at 37°C. Neutrophils were harvested by centrifugation at 400 x g for 5 min. Supernatants were removed and stored. Plate reader assays were performed as described above, with the MMP buffer replaced with neutrophil supernatant. All experiments were carried out in duplicate using three independent donors (one donor per independent repeat). Data were normalised by background subtraction of intrinsic fluorescence.

Series [4] in a line: supernatant from stimulated (5 μM calcium ionophore A23187) neutrophils. Particulars: human, up to 10 minutes.

T2 sequence (P08253 110-446 limits assumed): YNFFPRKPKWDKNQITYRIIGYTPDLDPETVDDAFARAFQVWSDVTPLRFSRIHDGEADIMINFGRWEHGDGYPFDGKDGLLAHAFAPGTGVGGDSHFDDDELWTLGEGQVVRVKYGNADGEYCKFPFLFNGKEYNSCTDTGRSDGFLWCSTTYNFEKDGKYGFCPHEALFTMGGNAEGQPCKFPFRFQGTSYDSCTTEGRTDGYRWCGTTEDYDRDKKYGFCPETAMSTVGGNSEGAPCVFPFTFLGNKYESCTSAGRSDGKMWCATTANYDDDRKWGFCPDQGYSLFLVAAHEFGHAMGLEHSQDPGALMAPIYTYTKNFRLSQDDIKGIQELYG

For `CNC(=O)[C@@H](NC(=O)[C@H](CC(C)C)[C@H](O)C(=O)NO)C(C)(C)C` [marimastat, reference compound], the “FIB One signal in inhibitor-dosed segments” value in series [1] was “did not show an increase in FIB One signal”. Further, the “inhibition of FIB One activation” value at MMP-9 and on MMP-2 was “blocked” each time. Also, the “inhibition of FIB One cleavage” value in series [2] and in series [3] was “cleavage inhibition observed” throughout.

With “FAM-PEG2-Pro-Phe-Gly-Nle-Lys-βAla-Lys(MethylRed)-PEG2-(D)Lys-PEG2-(D)Lys”, in series [4], the fragment found result was “peak at 823 Da, 10 min”.
